Assay results reported in US20210122771A1, “NEW MOLECULAR TWEEZERS AGAINST NEUROLOGICAL DISORDERS AND VIRAL INFECTIONS” (The Regents of the University of California, priority 2018, published 2021).
Like-named read-outs stand apart in the source and are kept apart here.

Columns and labels:
[1] = CellTiter-Glo cell viability assay on TZM-bl cells; format: cell-based; settings: human, CellTiter-Glo (ATP)
Method: (§1) FIG. 1, panels A and B, illustrates the results of a cell viability assay with the new molecular tweezers. Indicated concentrations of compounds were added to the cells and incubated for 2 days before […]-GLO® assay (Promega) was performed on TZM-bl cells (HIV-1 target cells) (panel A), or on Vero E6 (ZIKV target cells) (panel B). The experiment was performed in triplicates, raw data were normalized to untreated cells. Data represent mean±SD (n=3).
(§2) To determine the maximally tolerated concentrations of these derivatives in cell culture and to exclude cytotoxic effects in viral infectivity assays, a CellTiter-Glo® assay (Promega) was performed. This assay quantifies the amount of intracellular ATP. The compounds were directly added to TZM-bl cells (a HeLa derived HIV-1 reporter cell line TZM-bl; 20,000 cells/well, FIG. 1, panel A) or Vero E6 cells (a Zika virus (=ZIKV) permissive cell line; 12,000 cells/well, FIG. 1, panel B). Cell viability was quantified two days later by measuring ATP levels.

[2] = tested on: enveloped viruses such as HIV-1 and HSV-2; settings: cited from earlier work
RGD = format: binding; settings: fluorometric titration in aqueous buffer at neutral pH; read-out: Dissociation constant Kd, RGD
CCR5-tropic HIV-1 strain = assay: HIV-1 infectivity assay on TZM-bl cells; format: cell-based
Method: FIG. 3, panels A and B, illustrates the results of an HIV-1 infectivity assay with new tweezers on TZM-bl cells. CR5-tropic HIV-1 strain (20 ng/ml p24 antigen) was incubated for 10 min at 37° C. with indicated concentrations of the different compounds before these mixtures were used to infect TZM-bl cells. Three days later, infection rates were determined by measuring β-galactosidase activity.
Infection rates were determined 3 days post infection by detecting β-galactosidase activity in cellular lysates using the Tropix Gal-Screen kit (Applied Biosystems) and an Orion microplate luminometer (Berthold). Values represent % infection (mean) compared to buffer control (FIG. 3, panels A and B). […] Half-maximal inhibitory concentrations (IC50 values), were calculated. […] The selectivity index (SI) is calculated for each compound by dividing its CC50 value by its IC50 value (Table 12).

KAA = format: binding; settings: fluorometric titration in aqueous buffer at neutral pH; read-out: Dissociation constant Kd, KAA
Aβ42-induced toxicity = assay: Inhibition of Aβ42 toxicity in differentiated PC-12 cells (MTT/LDH); format: cell-based, rat; settings: Rattus norvegicus, PC-12, read-out: Inhibition of Aβ42 toxicity, IC50 (MTT)
Method: (§3) The highest concentration tested was 100 μM. Non-toxic compounds then were tested for their ability to inhibit the toxicity of 10 μM Aβ42 in the same assay. The parent compound 1 was used as a control in both cases.

Full 24-h PK profile = format: in vivo, mice; settings: 24-h profile; for Brain AUC / AUC / half-life: 7 time points; for AUC / half-life / bioavailability: mouse, in vivo; for AUC: read-out: Blood AUC; for bioavailability: read-out: Blood Bioavailability
Method: Based on the 2-time-point screen results, a full 24-h PK profile has been obtained for compounds 13 and 14. In these experiments, the blood and brain levels were measured at 7 time points—0.3, 0.6, 1, 2, 4, 8, and 24 h. Data for 1 are given for reference.

ZIKV strain MR766 = assay: ZIKV infectivity (MTT) assay on Vero E6 cells; format: cell-based, Zika virus
Method: FIG. 2, panels A and B, illustrates the results of a ZIKV infectivity (MTT) assay with the new molecular tweezers on Vero E6 cells. […] After 3-4 days, the ZIKV induced cytopathic effect was quantified using the MTT assay.
20-μl of MTT solution (5 mg/ml in PBS) were added to 200 μl cells. Following a 3-h incubation at 37° C., cell-free supernatants were discarded and formazan crystals were dissolved in 100 μl of a 1:2 mixture of dimethyl sulfoxide and ethanol. Absorption was measured at 490 nm and baseline corrected at 650 nm using a VMax Kinetic ELISA microplate reader (Molecular Devices). To determine infection rates, sample values were subtracted from untreated control set to 100%. Error bars are standard deviations of replicates (FIG. 2, panels A and B). […] The selectivity index (SI) (Table 12) is calculated for each compound by dividing its CC50 value by the IC50 value.

[3] = PK screening in mice, three routes, two time points; settings: male, mouse, in vivo
Method: Each compound was administered to the mice at 2 mg/kg intravenously (I.V.), 2 mg/kg subcutaneously (S.C.), or 10 mg/kg orally (P.O.).

[4] = tested on: differentiated rat pheochromocytoma (PC-12) cells; assay: Self-toxicity in differentiated PC-12 cells (MTT and/or LDH); settings: MTT and/or LDH assays, highest concentration tested 100 μM
Method: as §3

[5] = CellTiter-Glo cell viability assay on Vero E6 cells; format: cell-based; settings: African green monkey, CellTiter-Glo (ATP)
Method: as §1, §2

[6] = CC50 value divided by IC50 value

In the case of `O=P(O)(O)Oc1c2c(c(OP(=O)(O)O)c3c1C1CC3c3cc4c(cc31)C1CC4c3ccccc31)C1CC2c2cc3c(cc21)C1CC3c2ccccc21` [Compound 1, CLR01, reference compound], the CC50 at 2 days [1] is listed as 964 µM, the “concentrations required to inhibit enveloped viruses such as HIV-1 and HSV-2” value ([2]; Lump et al. (2015) eLife, 4: e05397) is listed as “median micromolar range” and the “antiviral activity in the presence of serum” value ([2]; Rocker et al. (2018) Antiviral Res. 152: 26-35) is listed as “inhibited”. For the same molecule, the Kd (RGD) was 86 µM, the “SI (TZM-bl/HIV-1)” value (CCR5-tropic HIV-1 strain; [6]) was 26 and the IC50 (CCR5-tropic HIV-1 strain; Human immunodeficiency virus 1, TZM-bl, read-out: IC50 HIV-1) was 37 µM. The Kd (KAA) was 30 µM, the IC50 (Aβ42-induced toxicity) was 69 µM and the LogBB (Full 24-h PK profile; I.V.) was −3.62. For the same molecule, the “Brain AUC” value (Full 24-h PK profile; I.V.) was 1.63, the “Brain AUC” value (Full 24-h PK profile; P.O.) was 0 and the LogBB (Full 24-h PK profile; S.C.) was 0.34. The AUC (Full 24-h PK profile; iv, I.V.) was 6800 ng·h/mL, the half-life (Full 24-h PK profile; iv, I.V., read-out: Blood T1/2 (converted)) was 1.8 h and the half-life (Full 24-h PK profile; iv, I.V., read-out: Brain T1/2 (converted)) was 4 h. It also gave an AUC (Full 24-h PK profile; po, P.O.) of 8.94 ng·h/mL, a half-life (Full 24-h PK profile; po, P.O., read-out: Blood T1/2 (converted)) of 1.3 h and a bioavailability (Full 24-h PK profile; po, P.O.) of 0.1%. The AUC (Full 24-h PK profile; sc, S.C.) was 4740 ng·h/mL, the half-life (Full 24-h PK profile; sc, S.C., read-out: Blood T1/2 (converted)) was 1.05 h and the half-life (Full 24-h PK profile; sc, S.C., read-out: Brain T1/2 (converted)) was 0.9 h. For the same molecule, the bioavailability (Full 24-h PK profile; sc, S.C.) was 69.7%, the “SI (Vero E6/ZIKV)” value (ZIKV strain MR766; [6]) was 13 and the IC50 (ZIKV strain MR766; Zika virus, Vero C1008, read-out: IC50 ZIKV) was 46 µM. The bioavailability at 40 min ([3]; 2 mg/kg) was 101%, the bioavailability at 4 h ([3]; 2 mg/kg) was 86.6% and the bioavailability at 40 min ([3]; 10 mg/kg) was 0.5%. The bioavailability at 4 h ([3]; 10 mg/kg) was 0%, the Kp at 40 min ([3]; iv, 2 mg/kg) was 0 and the Kp at 4 h ([3]; iv, 2 mg/kg) was 0.002. The Kp at 40 min ([3]; po, 10 mg/kg) was 0, the Kp at 4 h ([3]; po, 10 mg/kg) was 0 and the Kp at 40 min ([3]; sc, 2 mg/kg) was 0. For the same molecule, the Kp at 4 h ([3]; sc, 2 mg/kg) was 0, the Self-toxicity [4] was “Non-toxic” and the CC50 at 2 days [5] was 584 µM.
